Laboratory results from PubChem BioAssay (NCI).
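Interpolation was linear, between the two tested concentrations surrounding the appropriate level; five concentrations were tested over 48 hours in 96-well plates. GI50 marks 50% less growth. At the TGI there is no net growth.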

Tests used:
Assay in all cases: inhibition of tumour cell growth, NCI panel, 48 h
[1] = tested on: OVCAR-5 ovarian
[2] = tested on: MCF7 breast
[3] = tested on: NCI-H23 lung
[4] = tested on: MDA-MB-231 breast
[5] = tested on: U251 CNS
[6] = tested on: MOLT-4 leukemia
[7] = tested on: LOX IMVI melanoma
[8] = tested on: EKVX NSCLC
[9] = tested on: HT29 colon
[10] = tested on: NCI-H522 lung
[11] = tested on: MDA-MB-435
[12] = tested on: 786-0 renal
[13] = tested on: CCRF-CEM leukemia
[14] = tested on: SW-620 colon
[15] = tested on: HL-60(TB) leukemia
[16] = tested on: BT-549 breast
[17] = tested on: SF-539 CNS
[18] = tested on: SK-MEL-2 melanoma
[19] = tested on: IGROV1 ovarian
[20] = tested on: KM12 colon
[21] = tested on: NCI-H226 lung
[22] = tested on: UACC-62 melanoma
[23] = tested on: SK-OV-3 ovarian
[24] = tested on: RPMI-8226 leukemia
[25] = tested on: PC-3 prostate
[26] = tested on: SNB-75 CNS
[27] = tested on: NCI-H460 lung
[28] = tested on: HOP-62 NSCLC
[29] = tested on: ACHN renal
[30] = tested on: SNB-19 CNS
[31] = tested on: SF-295 CNS
[32] = tested on: HCT-116 colon
[33] = tested on: HCC-2998 colon
[34] = tested on: RXF 393 renal
[35] = tested on: NCI/ADR-RES ovarian
[36] = tested on: SF-268 CNS
[37] = tested on: CAKI-1 renal
[38] = tested on: DU-145 prostate
[39] = tested on: SN12C renal
[40] = tested on: UO-31 renal
[41] = tested on: SK-MEL-28 melanoma
[42] = tested on: OVCAR-3 ovarian
[43] = tested on: HOP-92 NSCLC
[44] = tested on: M14 melanoma
[45] = tested on: T-47D breast
[46] = tested on: UACC-257 melanoma
[47] = tested on: SR leukemia
[48] = tested on: SK-MEL-5 melanoma
[49] = tested on: HS 578T breast
[50] = tested on: OVCAR-8 ovarian
[51] = tested on: TK-10 renal
[52] = tested on: OVCAR-4 ovarian
[53] = tested on: A549 NSCLC
[54] = tested on: COLO 205 colon
[55] = tested on: A498 renal
[56] = tested on: HCT-15 colon
[57] = tested on: K-562 leukemia

## CC(C)(C)c1ccc(C(=O)Nc2sc3c(c2C#N)CCC(=O)C3)cc1
[1]
  GI50: 531 nM
  TGI: 5780 nM
[2]
  GI50: 320 nM
[3]
  GI50: 443 nM
  TGI: > 100000 nM
[4]
  GI50: 746 nM
  TGI: 3000 nM
[5]
  GI50: 218 nM
  TGI: > 100000 nM
[6]
  GI50: 324 nM
  TGI: > 100000 nM
[7]
  GI50: 262 nM
[8]
  GI50: 1130 nM
  TGI: > 100000 nM
[9]
  GI50: 505 nM
  TGI: 3830 nM
[10]
  GI50: 233 nM
  TGI: 1360 nM
[11]
  GI50: 873 nM
  TGI: 4820 nM
[12]
  GI50: 769 nM
[13]
  GI50: 69.7 nM
  TGI: > 100000 nM
[14]
  GI50: 105 nM
  TGI: 566 nM
[15]
  GI50: 505 nM
  TGI: 1950 nM
[16]
  GI50: 338 nM
  TGI: 16800 nM
[17]
  GI50: 209 nM
  TGI: 936 nM
[18]
  GI50: 960 nM
  TGI: 2910 nM
[19]
  GI50: 657 nM
  TGI: > 20400 nM
[20]
  GI50: 418 nM
  TGI: > 100000 nM
[21]
  GI50: 991 nM
  TGI: 5740 nM
[22]
  GI50: 347 nM
  TGI: 2240 nM
[23]
  GI50: 2180 nM
  TGI: 9940 nM
[24]
  GI50: 90.2 nM
  TGI: 495 nM
[25]
  GI50: 139 nM
[26]
  GI50: 612 nM
  TGI: 2600 nM
[27]
  GI50: 890 nM
  TGI: > 26000 nM
[28]
  GI50: 1240 nM
  TGI: > 100000 nM
[29]
  GI50: 237 nM
  TGI: 641 nM
[30]
  GI50: 406 nM
  TGI: > 100000 nM
[31]
  GI50: 658 nM
  TGI: > 26200 nM
[32]
  GI50: 122 nM
[33]
  GI50: 1250 nM
  TGI: > 100000 nM
[34]
  GI50: 237 nM
  TGI: 796 nM
[35]
  GI50: 718 nM
  TGI: 5750 nM
[36]
  GI50: 625 nM
  TGI: > 100000 nM
[37]
  GI50: 235 nM
  TGI: 793 nM
[38]
  GI50: 5930 nM
  TGI: > 100000 nM
[39]
  GI50: 611 nM
  TGI: > 53500 nM
[40]
  GI50: 224 nM
  TGI: 678 nM
[41]
  GI50: 704 nM
  TGI: 5670 nM
[42]
  GI50: 473 nM
  TGI: 1630 nM
[43]
  GI50: 1210 nM
  TGI: 4760 nM
[44]
  GI50: 412 nM
  TGI: > 83600 nM
[45]
  GI50: 211 nM
  TGI: 905 nM
[46]
  GI50: 690 nM
  TGI: 3470 nM
[47]
  GI50: 149 nM
  TGI: > 38100 nM
[48]
  GI50: 706 nM
  TGI: 1700 nM
[49]
  GI50: 339 nM
  TGI: > 20500 nM
[50]
  GI50: 643 nM
  TGI: > 100000 nM
[51]
  GI50: 531 nM
  TGI: 5080 nM
[52]
  GI50: 223 nM
  TGI: 687 nM
[53]
  GI50: 980 nM
  TGI: > 100000 nM
[54]
  GI50: 328 nM
  TGI: 944 nM
[55]
  GI50: 1660 nM
  TGI: 5580 nM
[56]
  GI50: 281 nM
  TGI: 3400 nM
[57]
  GI50: 87.4 nM
  TGI: > 71400 nM
